According to patent US10856562B2, “Flavor composition and edible compositions containing same” (MARS, INCORPORATED, priority 2013, dated 2020):
Entries after “also recorded” stand apart in the source; their conditions may differ. Square brackets hold non-standard residues; d marks the D form. Ends that are not written are not given here. pGlu = O=C1CC[C@@H](C(=O)O)N1

Tests used:
panelists [1] = test: Degree of Difference (DOD) of test rice from control rice; format: in vivo, human; design: Degree of Difference in rice: scale not given here; settings: for Degree of Difference in rice: difference from Control; for Degree of Difference in rice / DOD from Control: rice; for DOD from Control: scale 0.0 to 10.0
Description: The present example describes the evaluation of the descriptive profile of pGlu-Cys (identified as “FE-35”), pGlu-Cys-Gly (identified as “FE-36”), pGlu-Cys-Cys (identified as “FE-37”), pGlu-Cys-Val (identified as “FE-38”) and pGlu-Val-Cys (identified as “UE-30”) peptides of the present application. An objective of the study was to understand the efficacy of flavor enhancer compounds FE-35, FE-36, FE-37, FE-38 and UE-30 in increasing concentrations both in solution and in rice, and to determine a Degree of Difference (DOD) score between a control rice sample (which includes NaCl, and no flavor composition peptide) and the test rice samples (with added flavor composition peptides at increasing concentrations).

panelists [2] = test: Return to baseline protocol: salt reference re-tasted at 1 minute intervals; format: in vivo, human; settings: for Time needed to return to baseline as the concentration increases: 0.1 to 40.0/50.0 ppb
Description: After evaluating the sample for salt and other perceptions (step 3 above), each panelist re-tasted the salt reference (5.0 intensity) at 1 minute intervals until their perception of the saltiness intensity of the reference returned to 5.0. Each panelist recorded salt intensity at each interval and took qualitative notes on other perceptions seen in aftertaste. Attribute Perception Protocol • The panelists evaluated each sample using the following procedure • Descriptive Profiles (flavor and chemical feeling factors) of 5 levels of salt enhancing solutions • Individual data was collected for the flavor and chemical feeling factors of the product in-mouth • Increased Salt Perception Protocol • Each panelist tasted salt 5 reference (0.35% salt solution)—to ground themselves on salt intensity of 5.0. • Each panelist tasted the test sample (0.1 ppb, 0.5 ppb, 1.0 ppb, 10.0 ppb or 40.0/50.0 ppb all in 0.2% NaCl solution: only one per session) • Each panelist then re-tasted the salt 5 reference and rated it for salt intensity as well as any other basic taste, chemical feeling factor, or aromatic perceived. This captured any increased salt perception indicated by the test sample as well as any other perceptions present. • Return to Baseline Protocol • After evaluating the sample for salt & other perceptions, panelists re-tasted the salt 5 reference at 1 minute intervals until their perception of the salt 5 saltiness intensity had returned to 5.0. Each panelist recorded their salt intensity at each interval and took qualitative notes on other perceptions seen in aftertaste. Sample Preparation

Substance	Degree of Difference in rice (panelists [1]; 1.0 ppb)	Degree of Difference in rice (panelists [1]; 10.0 ppb)	Degree of Difference in rice (panelists [1]; 100.0 ppb)	DOD from Control (panelists [1]; 1.0 ppb (5 ppm))	DOD from Control (panelists [1]; 10.0 ppb (50 ppm))	DOD from Control (panelists [1]; 100 ppb (50 ppm))	Mean time needed to return to baseline (panelists [2]; 0.1 ppb in 0.2% NaCl)	Mean time needed to return to baseline (min.) (panelists [2]; 0.1 ppb in 0.2% NaCl)	Time needed to return to baseline as the concentration increases (panelists [2])	Mean time needed to return to baseline (panelists [2]; 0.5 ppb in 0.2% NaCl)	Mean time needed to return to baseline (min.) (panelists [2]; 0.5 ppb in 0.2% NaCl)	Mean time needed to return to baseline (panelists [2]; 1.0 ppb in 0.2% NaCl)	Mean time needed to return to baseline (min.) (panelists [2]; 1.0 ppb in 0.2% NaCl)	Mean time needed to return to baseline (panelists [2]; 10.0 ppb in 0.2% NaCl)	Mean time needed to return to baseline (min.) (panelists [2]; 10.0 ppb in 0.2% NaCl)	other results
[pGlu]-Cys [FE-35]	3.8	5.0	5.0	3.8	5.0	5.0										Whether consumers notice a difference between the Control and test rice (DOD) (panelists [1]; 1 ppb): Consumers will likely not notice the difference; Whether consumers notice a difference between the Control and test rice (DOD) (panelists [1]; 10 and 100 ppb): Consumers will likely notice a difference
[pGlu]-Cys-Cys (cysteine pairing not given here) [FE-37]	4.0	4.5	5.0	4.0	4.5	5.0										Whether consumers notice a difference between the Control and test rice (DOD) (panelists [1]; 1 and 10 ppb): Consumers will may or may not notice a difference; Whether consumers notice a difference between the Control and test rice (DOD) (panelists [1]; 10 ppb): Consumers may or may not notice a difference; Whether consumers notice a difference between the Control and test rice (DOD) (panelists [1]; 100 ppb): Consumers will likely notice a difference
[pGlu]-Cys-Gly [FE-36]	5.0	5.0	5.5	5.0	5.0	5.5										Whether consumers notice a difference between the Control and test rice (DOD) (panelists [1]; all concentrations): Consumers will likely notice a difference
[pGlu]-Cys-Val [FE-38]	4.5	5.0	4.5	4.5	5.0	4.5										Whether consumers notice a difference between the Control and test rice (DOD) (panelists [1]; 1 and 100 ppb): Consumers may or may not notice a difference; Whether consumers notice a difference between the Control and test rice (DOD) (panelists [1]; 10 ppb): Consumers will likely notice a difference
[pGlu]-Val [SE-14]							4.6 min	4.6 min	increases slightly overall; also recorded: slight increase overall	4.6 min	4.6 min	3.9 min	3.9 min	5.8 min	5.8 min	Mean time needed to return to baseline (panelists [2]; 50.0 ppb in 0.2% NaCl): 6.6 min; Mean time needed to return to baseline (min.) (panelists [2]; 50.0 ppb in 0.2% NaCl): 6.6 min
[pGlu]-Val-Cys [UE-30]	4.5	5.0	5.0	4.5	5.0	5.0										Whether consumers notice a difference between the Control and test rice (DOD) (panelists [1]; 1 ppb): Consumers may or may not notice a difference; Whether consumers notice a difference between the Control and test rice (DOD) (panelists [1]; 10 and 100 ppb): Consumers will likely notice a difference
[pGlu]-Val-Leu [SE-13]							7.6 min	7.6 min	increases notably from 0.1 ppb to 0.5 ppb and from 10.0 ppb to 40.0 ppb; also recorded: does not necessarily increase	9.5 min	9.5 min	8.7 min	8.7 min	8.6 min	8.6 min	Time needed to return to baseline as the concentration increases (panelists [2]; listed as pGlu-Val-Leu): did not necessarily increase; Mean time needed to return to baseline (panelists [2]; 40.0 ppb in 0.2% NaCl): 13.1 min; Mean time needed to return to baseline (min.) (panelists [2]; 40.0 ppb in 0.2% NaCl): 13.1 min; Time needed to return to baseline, comparison of SE-13, SE-14 and SE-17 (panelists [2]; overall): greatest
[pGlu]-Val-Val [SE-17]							3.4 min	3.4 min	No definitive trends are seen; also recorded: no definitive trend	5.6 min	5.6 min	5.0 min	5.0 min	5.0 min	5.0 min	Mean time needed to return to baseline (panelists [2]; 50.0 ppb in 0.2% NaCl): 4.1 min; Mean time needed to return to baseline (min.) (panelists [2]; 50.0 ppb in 0.2% NaCl): 4.1 min
